This is an account of results in patent US10653695B2, “Pharmaceutical formulations of neflamapimod” (EIP Pharma, LLC, priority 2018, dated 2020).

A short description of series [1]: Dissolution testing (USP <711>, Apparatus 2) of neflamapimod capsules and blends, including on stability. Format: physicochemical. The conditions noted are these: powder-in-capsule vs capsules stored at 40° C./75% RH; FIG. 1. The source says: USP Dissolution Acceptance Criteria. Dissolution testing of a drug product is a method for evaluating physiological availability that depends upon having the drug in a dissolved state. The United States Pharmacopoeia (“USP”) dissolution testing <USP 711> involves three stages with the acceptance criteria defined for each stage as a function of a quantity Q, a percentage of the label value that is established for each drug product.
Dissolution testing data described herein are generated according to the specifications shown below in Table 3 and using the procedure set forth by the United States Pharmacopeial Convention in USP <711>.
Determined by the procedure set forth in Example 1.1.

For series [2] the following is noted: cited from earlier work.

For the compound `O=c1ncn2nc(Sc3ccc(F)cc3F)ccc2c1-c1c(Cl)cccc1Cl` [Neflamapimod], in series [1], the “Dissolution compared to the aged capsules” value is reported as “better dissolution”. In series [2], the Solubility in water entry is “very low”.
